In ChEMBL document CHEMBL5724914, “Linking interpersonal differences in gut microbiota composition and drug biotransformation activity” (2024):

Tests used:
[1] = (§1) The drug is tested on WLS-098 corresponding to human gut metagenome with ENA study accession number: PRJEB37062 and ENA sample accession number: ERS12561754 for biotransformation under anaerobic condition. The drug concentrations were measured over 9 timepoints collected between 0 and 24 hours of incubation by liquid-chromatography-coupled mass spectrometry (LC–MS); conditions: 2 µM
[2] = as §1, with “Z-008” for “WLS-098”, “to” for “to human gut”, “ERS12561808” for “ERS12561754”; conditions: 2 µM
[3] = human gut metagenome, 24 h, 2 µM
[4] = as §1, with “Z-019” for “WLS-098”, “rat” for “human”, “ERS12561818” for “ERS12561754”; conditions: 2 µM
[5] = as §1, with “WLS-310” for “WLS-098”, “ERS12561785” for “ERS12561754”; conditions: 2 µM
[6] = as §1, with “WLS-039” for “WLS-098”, “ERS12561746” for “ERS12561754”; conditions: 2 µM
[7] = as §1, with “Z-012” for “WLS-098”, “to” for “to human gut”, “ERS12561812” for “ERS12561754”; conditions: 2 µM
[8] = human gut metagenome, 24 h, 2 µM; remark: listed apart in the source
[9] = human gut metagenome, 24 h, 2 µM; remark: listed apart in the source
[10] = as §1, with “WLS-170” for “WLS-098”, “ERS12561762” for “ERS12561754”; conditions: 2 µM
[11] = as §1, with “WLS-010” for “WLS-098”, “ERS12561743” for “ERS12561754”; conditions: 2 µM
[12] = human gut metagenome, 24 h, 2 µM; remark: listed apart in the source
[13] = human gut metagenome, 24 h, 2 µM; remark: listed apart in the source
[14] = as §1, with “Z-014” for “WLS-098”, “rat” for “human”, “ERS12561814” for “ERS12561754”; conditions: 2 µM
[15] = as §1, with “Z-006” for “WLS-098”, “mouse” for “human”, “ERS12561806” for “ERS12561754”; conditions: 2 µM
[16] = human gut metagenome, 24 h, 2 µM; remark: listed apart in the source
[17] = as §1, with “WLS-052” for “WLS-098”, “ERS12561747” for “ERS12561754”; conditions: 2 µM
[18] = human gut metagenome, 24 h, 2 µM; remark: listed apart in the source
[19] = human gut metagenome, 24 h, 2 µM; remark: listed apart in the source
[20] = as §1, with “Z-002” for “WLS-098”, “rabbit” for “human”, “ERS12561802” for “ERS12561754”; conditions: 2 µM
Also: call rule not given here.

Bacterial Biotransformation [1] | Bacterial Biotransformation [2] | Bacterial Biotransformation [3] | Bacterial Biotransformation [4] | Bacterial Biotransformation [5] | Bacterial Biotransformation [6] | Bacterial Biotransformation [7] | Bacterial Biotransformation [8] | Bacterial Biotransformation [9] | Bacterial Biotransformation [10] | Bacterial Biotransformation [11] | Bacterial Biotransformation [12] | Bacterial Biotransformation [13] | Bacterial Biotransformation [14] | Bacterial Biotransformation [15] | Bacterial Biotransformation [16] | Bacterial Biotransformation [17] | Bacterial Biotransformation [18] | Bacterial Biotransformation [19] | Bacterial Biotransformation [20] | Compound
Compound metabolized | Compound metabolized | Compound metabolized | Compound NOT metabolized | Compound metabolized | Compound metabolized | Compound metabolized | Compound metabolized | Compound NOT metabolized | Compound metabolized | Compound metabolized | Compound metabolized | Compound metabolized | Compound NOT metabolized | Compound metabolized | Compound metabolized | Compound metabolized | Compound metabolized | Compound metabolized | Compound metabolized | CCOc1cc(CC(=O)N[C@@H](CC(C)C)c2ccccc2N2CCCCC2)ccc1C(=O)O [REPAGLINIDE]
Compound NOT metabolized | Compound NOT metabolized | Compound NOT metabolized | Compound NOT metabolized | Compound NOT metabolized | Compound NOT metabolized | Compound NOT metabolized | Compound NOT metabolized | Compound NOT metabolized | Compound metabolized | Compound NOT metabolized | Compound NOT metabolized | Compound NOT metabolized | Compound NOT metabolized | Compound NOT metabolized | Compound NOT metabolized | Compound NOT metabolized | Compound NOT metabolized | Compound NOT metabolized | Compound NOT metabolized | CC(N)C12CC3CC(CC(C3)C1)C2 (stereo not given) [RIMANTADINE]
Compound metabolized | Compound NOT metabolized | Compound NOT metabolized | Compound NOT metabolized | Compound NOT metabolized | Compound NOT metabolized | Compound metabolized | Compound NOT metabolized | Compound NOT metabolized | Compound metabolized | Compound NOT metabolized | Compound metabolized | Compound metabolized | Compound NOT metabolized | Compound NOT metabolized | Compound NOT metabolized | Compound NOT metabolized | Compound NOT metabolized | Compound NOT metabolized | Compound metabolized | CCCN(CCC)CCc1cccc2c1CC(=O)N2 [ROPINIROLE]
Compound metabolized | Compound metabolized | Compound metabolized | Compound NOT metabolized | Compound metabolized | Compound metabolized | Compound NOT metabolized | Compound metabolized | Compound metabolized | Compound metabolized | Compound metabolized | Compound metabolized | Compound metabolized | Compound NOT metabolized | Compound NOT metabolized | Compound metabolized | Compound metabolized | Compound metabolized | Compound metabolized | Compound metabolized | O=C1C(CC[S+]([O-])c2ccccc2)C(=O)N(c2ccccc2)N1c1ccccc1 (stereo not given) [SULFINPYRAZONE]
Compound metabolized | Compound NOT metabolized | Compound NOT metabolized | Compound NOT metabolized | Compound NOT metabolized | Compound NOT metabolized | Compound NOT metabolized | Compound NOT metabolized | Compound NOT metabolized | Compound metabolized | Compound NOT metabolized | Compound NOT metabolized | Compound metabolized | Compound NOT metabolized | Compound NOT metabolized | Compound NOT metabolized | Compound NOT metabolized | Compound NOT metabolized | Compound NOT metabolized | Compound metabolized | CCOc1ccccc1OCCN[C@H](C)Cc1ccc(OC)c(S(N)(=O)=O)c1.Cl [TAMSULOSIN HYDROCHLORIDE]

The remaining lines, values behind:

Compound | Bacterial Biotransformation [1] | Bacterial Biotransformation [2] | Bacterial Biotransformation [3] | Bacterial Biotransformation [4] | Bacterial Biotransformation [5] | Bacterial Biotransformation [6] | Bacterial Biotransformation [7] | Bacterial Biotransformation [8] | Bacterial Biotransformation [9] | Bacterial Biotransformation [10] | Bacterial Biotransformation [11] | Bacterial Biotransformation [12] | Bacterial Biotransformation [13] | Bacterial Biotransformation [14] | Bacterial Biotransformation [15] | Bacterial Biotransformation [16] | Bacterial Biotransformation [17] | Bacterial Biotransformation [18] | Bacterial Biotransformation [19] | Bacterial Biotransformation [20]
CCN(C)C(=O)Oc1cccc([C@H](C)N(C)C)c1.O=C(O)C(O)C(O)C(=O)O [RIVASTIGMINE TARTRATE] | Compound NOT metabolized | Compound NOT metabolized | Compound NOT metabolized | Compound NOT metabolized | Compound NOT metabolized | Compound metabolized | Compound NOT metabolized | Compound NOT metabolized | Compound NOT metabolized | Compound NOT metabolized | Compound NOT metabolized | Compound NOT metabolized | Compound NOT metabolized | Compound NOT metabolized | Compound NOT metabolized | Compound metabolized | Compound metabolized | Compound NOT metabolized | Compound NOT metabolized | Compound NOT metabolized
O=C(O)CCC(=O)O.O=C(O[C@H]1CN2CCC1CC2)N1CCc2ccccc2[C@@H]1c1ccccc1 [SOLIFENACIN SUCCINATE] | Compound metabolized | Compound NOT metabolized | Compound metabolized | Compound NOT metabolized | Compound NOT metabolized | Compound metabolized | Compound metabolized | Compound NOT metabolized | Compound NOT metabolized | Compound NOT metabolized | Compound metabolized | Compound NOT metabolized | Compound NOT metabolized | Compound NOT metabolized | Compound NOT metabolized | Compound metabolized | Compound NOT metabolized | Compound NOT metabolized | Compound NOT metabolized | Compound metabolized
O=C(CCCN1CCC2(CC1)C(=O)NCN2c1ccccc1)c1ccc(F)cc1 [SPIPERONE] | Compound metabolized | Compound NOT metabolized | Compound NOT metabolized | Compound NOT metabolized | Compound metabolized | Compound NOT metabolized | Compound NOT metabolized | Compound NOT metabolized | Compound NOT metabolized | Compound metabolized | Compound NOT metabolized | Compound metabolized | Compound metabolized | Compound NOT metabolized | Compound NOT metabolized | Compound metabolized | Compound NOT metabolized | Compound NOT metabolized | Compound metabolized | Compound NOT metabolized
